In ChEMBL document CHEMBL5046261, “Flavonostilbenes Isolated from the Stems of Rhamnoneuron balansae as Potential SIRT1 Activators” (J Nat Prod, 2022):
Calls of active or inactive are those of the source. The calls are words filed in the database; no cut-off is given here.

Assays:
[1] = test system: HEK293; experiment: Cytotoxicity against human HEK293 cells assessed as cell viability at 20 uM measured after 24 hrs by MTT assay; format: toxicity, cell-based; settings: hek293, 24 h
[2] = target: T1, NAD-dependent protein deacetylase sirtuin-1 (Homo sapiens) (UniProt Q96EB6); experiment: Activation of SIRT1 (unknown origin) expressed in human HEK293 cells assessed as decrease in luciferase activity at 20 uM measured after 24 hrs by luciferase reporter gene assay; format: cell-based; settings: filed as activator
T1 sequence (whole entry): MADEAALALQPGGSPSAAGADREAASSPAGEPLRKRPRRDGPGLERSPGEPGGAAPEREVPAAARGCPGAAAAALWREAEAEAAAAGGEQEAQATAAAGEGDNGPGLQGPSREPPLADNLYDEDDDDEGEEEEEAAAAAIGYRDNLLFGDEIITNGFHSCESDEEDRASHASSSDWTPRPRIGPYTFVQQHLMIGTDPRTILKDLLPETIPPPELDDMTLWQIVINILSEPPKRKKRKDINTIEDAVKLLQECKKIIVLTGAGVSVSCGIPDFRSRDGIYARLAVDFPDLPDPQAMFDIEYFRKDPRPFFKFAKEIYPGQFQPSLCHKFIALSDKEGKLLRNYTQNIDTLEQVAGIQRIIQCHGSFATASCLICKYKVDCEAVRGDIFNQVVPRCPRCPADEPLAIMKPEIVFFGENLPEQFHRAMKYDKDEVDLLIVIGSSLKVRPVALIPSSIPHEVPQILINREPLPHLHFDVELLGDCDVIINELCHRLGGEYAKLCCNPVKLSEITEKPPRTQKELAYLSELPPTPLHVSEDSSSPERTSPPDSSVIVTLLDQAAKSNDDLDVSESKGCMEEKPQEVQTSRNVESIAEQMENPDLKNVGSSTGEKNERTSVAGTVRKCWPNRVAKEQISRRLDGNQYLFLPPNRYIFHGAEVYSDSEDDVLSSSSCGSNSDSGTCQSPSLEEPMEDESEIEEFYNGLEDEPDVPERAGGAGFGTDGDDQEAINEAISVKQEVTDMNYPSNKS

[3] = target: T1, NAD-dependent protein deacetylase sirtuin-1 (Homo sapiens); experiment: Activation of SIRT1 (unknown origin) expressed in human HEK293 cells assessed as increase in NAD+/NADH ratio at 10 to 40 uM in presence of NAD+ as substrate incubated for 12 hrs by NAD+/NADH assay based fluorescence microplate reader; format: cell-based; settings: filed as activator, dose 10-40 µM
[4] = test system: C2C12; experiment: Effect on AMPK in mouse C2C12 myotubes assessed as increase in AMPK-alpha phosphorylation at Thr172 at 1 mM measured after 1 hrs by western blot analysis; format: functional, cell-based
[5] = target: T1, NAD-dependent protein deacetylase sirtuin-1 (Homo sapiens); experiment: Activation of SIRT1 (unknown origin) expressed in human HEK293 cells assessed as decrease in p53 transcriptional activity at 20 uM measured after 24 hrs by luciferase reporter gene assay; format: cell-based; settings: filed as activator
[6] = target: T1, NAD-dependent protein deacetylase sirtuin-1 (Homo sapiens); experiment: Activation of SIRT1 (unknown origin) expressed in human HEK293 cells assessed as increase intracellular NAD+ level at 20 uM in presence of NAD+ as substrate incubated for 12 hrs by NAD+/NADH assay based fluorescence microplate reader; format: cell-based; settings: filed as activator
[7] = test system: C2C12; experiment: Cytotoxicity against mouse C2C12 myotubes assessed as cell viability at 10 to 40 uM measured after 24 hrs by MTT assay; format: toxicity, cell-based; settings: c2c12, 24 h, dose 10-40 µM
[8] = target: T1, NAD-dependent protein deacetylase sirtuin-1 (Homo sapiens); experiment: Activation of SIRT1 (unknown origin) expressed in human HEK293 cells assessed as decrease in luciferase activity at 5 uM measured after 24 hrs by luciferase reporter gene assay; format: cell-based; settings: filed as activator
[9] = target: T1, NAD-dependent protein deacetylase sirtuin-1 (Homo sapiens); experiment: Activation of SIRT1 (unknown origin) expressed in human HEK293 cells assessed as increase intracellular NAD+ level at 10 uM in presence of NAD+ as substrate incubated for 12 hrs by NAD+/NADH assay based fluorescence microplate reader; format: cell-based; settings: filed as activator
[10] = target: T1, NAD-dependent protein deacetylase sirtuin-1 (Homo sapiens); experiment: Activation of SIRT1 (unknown origin) expressed in human HEK293 cells assessed as increase in deacetylase activity from 1.25 to 20 uM measured after 24 hrs by luciferase reporter gene assay; format: cell-based; settings: filed as activator, dose 1.25-20 µM
[11] = test system: C2C12; experiment: Effect on AMPK in mouse C2C12 myotubes assessed as increase in AMPK-alpha phosphorylation at Thr172 at 5 to 10 uM measured after 1 hrs by western blot analysis; format: functional, cell-based; settings: dose 5-10 µM

| SMILES | Activity [1] | Activity [5] | also measured |
| --- | --- | --- | --- |
| O=c1c(O)c(-c2ccc(O)c(O)c2)oc2cc3c(c(O)c12)[C@@H](c1cc(O)cc(O)c1)[C@H](c1ccc(O)cc1)O3 | Non-Toxic |  |  |
| O=c1c(O)c(-c2ccc(O)cc2)oc2cc3c(c(O)c12)[C@@H](c1cc(O)cc(O)c1)[C@H](c1ccc(O)cc1)O3 | Non-Toxic |  |  |
| O=c1c(O)c(-c2cc(O)c(O)c(O)c2)oc2c3c(cc(O)c12)O[C@H](c1ccc(O)cc1)[C@H]3c1cc(O)cc(O)c1 | Non-Toxic |  |  |
| Oc1ccc(/C=C/c2cc(O)cc(O)c2)cc1 |  |  | Activity [2]: Active; Activity [3]: Dose-Dependent Effect |
| O=C1c2c(O)cc3c(c2O[C@@H](c2ccc(O)cc2)[C@@H]1O)[C@H](c1cc(O)cc(O)c1)[C@@H](c1ccc(O)cc1)O3 | Non-Toxic |  |  |
| NC(=O)c1ncn([C@@H]2O[C@H](CO)[C@@H](O)[C@H]2O)c1N |  |  | Activity [4]: Active |
| O=c1c(O)c(-c2ccc(O)cc2)oc2c(-c3cc(/C=C/c4cc(O)cc(O)c4)ccc3O)c(O)cc(O)c12 | Non-Toxic | Active |  |
| O=c1c(O)c(-c2ccc(O)c(O)c2)oc2c(-c3cc(/C=C/c4cc(O)cc(O)c4)ccc3O)c(O)cc(O)c12 | Non-Toxic | Active |  |
| O=c1c(O)c(-c2ccc(O)cc2)oc2cc3c(c(O)c12)[C@@H](c1cc(O)cc(O)c1)[C@@H](c1ccc(O)cc1)O3 | Non-Toxic |  |  |
| O=C1c2c(cc(O)c(-c3cc(/C=C/c4cc(O)cc(O)c4)ccc3O)c2O)O[C@H](c2ccc(O)c(O)c2)[C@H]1O | Non-Toxic | Active |  |
| O=C1c2c(O)cc(O)c(-c3cc(/C=C/c4cc(O)cc(O)c4)ccc3O)c2O[C@H](c2ccc(O)cc2)[C@H]1O | Non-Toxic | Active | Activity [6]: Active; Activity [7]: Non-Toxic; Activity [8]: Active; Activity [9]: Active; Activity [10]: Dose-Dependent Effect; Activity [11]: Active |
| O=c1c(O)c(-c2ccc(O)cc2)oc2cc(O)c(-c3cc(/C=C/c4cc(O)cc(O)c4)ccc3O)c(O)c12 | Non-Toxic | Active |  |
| O=c1c(O)c(-c2ccc(O)cc2)oc2c3c(cc(O)c12)O[C@@H](c1ccc(O)cc1)[C@H]3c1cc(O)cc(O)c1 | Non-Toxic |  |  |
